Results: US10442791B2, “DNA-PK inhibitors” (Vertex Pharmaceuticals Incorporated, priority 2012, dated 2019)

Key:
Assay type in all cases: cell-based
[1] = test system: HCT116; test: Cell viability following irradiation (CellTiter-Glo), HCT116; conditions: HCT116 (Colorectal Cancer), viability at 6 days
Description: (§1) To evaluate the radiosensitizing effects of compounds of the invention in combination with ionizing radiation (IR), a broad panel of cell lines across multiple tumor types and genetic backgrounds were tested. Cells were incubated with DMSO or compound 578 for 30 minutes and then exposed to various doses of radiation (0, 0.5, 1, 2, 4, 6, 8, and 16 Gy). Cell viability was assessed at 6 days using CellTiter-Glo® (Promega, Inc).

[2] = test system: OE19; test: Cell viability following irradiation (CellTiter-Glo), OE19; conditions: OE19 (Gastric-Esophageal Cancer), viability at 6 days
Description: as §1

[3] = test system: A172; test: Cell viability following irradiation (CellTiter-Glo), A172; conditions: A172 (Glioblastoma), viability at 6 days
Description: as §1

[4] = test system: Huh7; test: Cell viability following irradiation (CellTiter-Glo), Huh7; conditions: Huh7 (Hepatocellular Carcinoma), viability at 6 days
Description: as §1

[5] = test system: SMCC7721; test: Cell viability following irradiation (CellTiter-Glo), SMCC7721; conditions: SMCC7721 (Hepatocellular Carcinoma), viability at 6 days
Description: as §1

[6] = test system: SK-MEL-5; test: Cell viability following irradiation (CellTiter-Glo), SK-MEL-5; conditions: SK-MEL-5 (Melanoma), viability at 6 days
Description: as §1

[7] = test system: H838; test: Cell viability following irradiation (CellTiter-Glo), H838; conditions: H838 (Lung Cancer), viability at 6 days
Description: as §1

## CNC(=O)c1ccnc2c([C@H](C)CNc3cc(-c4cnc(C)nc4)ncn3)cccc12 [Compound 578, (S)—N-methyl-8-(1-((2′-methyl-[4,5′-bipyrimidin]-6-yl)amino)propan-2-yl)quinoline-4-carboxamide]
[1]; compound 578 0.7 μM + IR
  EC50 IR: 0.5 Gy
[1]; compound 578 2.1 μM + IR
  EC50 IR: <0.5 Gy
[2]; compound 578 0.7 μM + IR
  EC50 IR: 0.5 Gy
[2]; compound 578 2.1 μM + IR
  EC50 IR: <0.5 Gy
[3]; compound 578 0.7 μM + IR
  EC50 IR: 1.7 Gy
[3]; compound 578 2.1 μM + IR
  EC50 IR: 0.9 Gy
[4]; compound 578 0.7 μM + IR
  EC50 IR: 1.3 Gy
[4]; compound 578 2.1 μM + IR
  EC50 IR: 0.8 Gy
[5]; compound 578 0.7 μM + IR
  EC50 IR: 1.7 Gy
[5]; compound 578 2.1 μM + IR
  EC50 IR: 0.6 Gy
[6]; compound 578 0.7 μM + IR
  EC50 IR: 2.7 Gy
[6]; compound 578 2.1 μM + IR
  EC50 IR: 2.3 Gy
[7]; compound 578 0.7 μM + IR
  EC50 IR: 0.6 Gy
[7]; compound 578 2.1 μM + IR
  EC50 IR: <0.5 Gy
